Several values for one entry are separate records, joined by “and”; a condition that tells them apart may be missing. Identical values can stand only once.
Tests used:
wild-type (WT) Mtb = assay type: cell-based, Mycobacterium tuberculosis
Vero TMPRSS2 cells = assay: Cytotoxicity at single concentration, CellTiter-Glo ATP quantitation; assay type: cell-based, African Green Monkey; conditions: 72 hours
Protocol: Cytotoxicity assays were conducted to measure toxicity of compounds at single concentration in Vero TMPRSS2 cells by using quantitation of ATP to indicate metabolically active cells. Vero cells (derived from African Green Monkey kidney epithelial tissue) were grown in Dulbecco's Modified Eagle Medium (DMEM) supplemented with 10% fetal bovine serum (FBS), 10 mM HEPES buffered saline, and 2 mM L-glutamine. 5,000 cells per well were seeded into a 96-well plate containing two-fold titrations of compounds. The concentration of DMSO was maintained at 0.5% for all wells to avoid toxicity. The plates were incubated for 72 hours, at which point they were acclimatized to room temperature for 30 minutes. 25 μL of the substrate/buffer solution from the Promega CellTiter-Glo Luminescent Cell Viability Assay kit was added to each well. The plates were shaken at a low orbital speed for 3 minutes and let rest at room temperature for 10 minutes, after which luminescence was measured using a BioTek Synergy H1 Microplate Reader H1M. The positive control was defined as wells containing cells without compounds.
Percent viability was calculated as follows: […]

Compound | % Cell Viability Average (Vero TMPRSS2 cells; 100 uM) | % Cell Viability Replicate 1 (Vero TMPRSS2 cells; 100 uM) | % Cell Viability Replicate 2 (Vero TMPRSS2 cells; 100 uM) | other results
CCCCCCC#Cc1cncc(-c2nnc(SC)n2C)c1 | – | – | – | IC50 (wild-type (WT) Mtb): 48 µM
CCCCCCC#Cc1cncc(-c2nnc(SCc3cc(C(F)(F)F)cc(C(F)(F)F)c3)n2C)c1 | – | – | – | IC50 (wild-type (WT) Mtb): > 200 µM
CCCCCCC#Cc1cncc(-c2nnc(SCc3ncc([N+](=O)[O-])n3C)n2C)c1 | – | – | – | IC50 (wild-type (WT) Mtb): 94 µM
CCCCCCC#Cc1cncc(-c2nnc(SCCc3ccc(Cl)cc3)n2C)c1 | – | – | – | IC50 (wild-type (WT) Mtb): 8.2 µM
CCCCCCC#Cc1cncc(-c2nnc(Sc3ccc(Cl)cc3)n2C)c1 | – | – | – | IC50 (wild-type (WT) Mtb): 13 µM
CCCCCCC#Cc1cncc(-c2nnc(SCc3ccc(F)c([N+](=O)[O-])c3)n2C)c1 | – | – | – | IC50 (wild-type (WT) Mtb): 44 µM
CCCCCCC#Cc1cncc(C(=O)NN)c1 | – | – | – | % Cell Viability Average (Vero TMPRSS2 cells; 125 uM): 36.66%; % Cell Viability Replicate 1 (Vero TMPRSS2 cells; 125 uM): 34.62%; % Cell Viability Replicate 2 (Vero TMPRSS2 cells; 125 uM): 38.69%
CCCCCCC#Cc1cncc(-c2nnc(SCc3cccc([N+](=O)[O-])c3)n2C)c1 | 26.47% | 26.28% | 26.66% | –
CCCCCCC#Cc1cncc(-c2nnc(SCCCn3ccc(=O)[nH]c3=O)n2C)c1 | 14.14% | 9.07% | 19.21% | –
CCCCCCC#Cc1cncc(-c2nnc(SC[C@H]3O[C@@H](n4ccc(=O)[nH]c4=O)[C@@H]4OC(C)(C)O[C@@H]43)n2C)c1 | 1.10% | 1.02% | 1.19% | –
CCCCCCC#Cc1cncc(-c2nnc(S)n2C)c1 | 0.76% | 0.70% | 0.82% | –
CO[C@H]1[C@H](O[C@H]([C@H]2O[C@@H](n3ccc(=O)[nH]c3=O)[C@H](O)[C@@H]2O)[C@H](NCCCNC(=O)[C@H](CC(C)C)NC(=O)[C@@H](NC(=O)N[C@H](C(=O)O)C(C)C)[C@@H]2CCN=C(N)N2)C(=O)O)O[C@H](CN)[C@H]1O [Muraymycin D1, reference compound] | – | – | – | % Cell Viability Average (Vero TMPRSS2 cells; 50 uM): 92.38% and 91.22% and 89.63%; % Cell Viability Replicate 1 (Vero TMPRSS2 cells; 50 uM): 93.83% and 94.27% and 87.87%; % Cell Viability Replicate 2 (Vero TMPRSS2 cells; 50 uM): 90.92% and 88.18% and 91.39%
[H]/N=C(/N)N[C@H]1[C@H](O)[C@@H](O)[C@H](O[C@@H]2O[C@@H](C)[C@](O)(C=O)[C@H]2O[C@@H]2O[C@@H](CO)[C@H](O)[C@@H](O)[C@@H]2NC)[C@@H](N/C(N)=N\[H])[C@@H]1O [Streptomycin, reference compound] | – | – | – | % Cell Viability Average (Vero TMPRSS2 cells): 110.98% and 106.86% and 105.48%; % Cell Viability Replicate 1 (Vero TMPRSS2 cells): 112.83% and 110.01% and 108.58%; % Cell Viability Replicate 2 (Vero TMPRSS2 cells): 109.14% and 103.70% and 102.37%
CCCCCCC#Cc1cncc(-c2nnc(SCc3ccc(C(F)(F)F)cc3)n2C)c1 [drawing 96] | 70.35% | 74.34% | 66.36% | –
CCCCCCC#Cc1cncc(-c2nnc(SCc3ccc(Cl)cc3)[nH]2)c1 [drawing 97] | – | – | – | % Cell Viability Average (Vero TMPRSS2 cells; 125 uM): 67.98%; % Cell Viability Replicate 1 (Vero TMPRSS2 cells; 125 uM): 68.39%; % Cell Viability Replicate 2 (Vero TMPRSS2 cells; 125 uM): 67.58%
CCCCCCC#Cc1cncc(-c2nnc(SCc3ccc(C#N)cc3)n2C)c1 [drawing 98] | 66.33% | 75.34% | 57.31% | –
CCCCCCC#Cc1cncc(-c2nnc(SCc3ccc(OC)cc3)n2C)c1 [drawing 99] | 54.63% | 60.30% | 48.95% | –
CCCCCCC#Cc1cncc(-c2nnc(SCc3ccc(Cl)cc3)n2C)c1 [drawing 100] | 54.05% | 53.54% | 54.56% | –
CCCCCCC#Cc1cncc(-c2nnc(SCc3ccc(Cl)c(F)c3)n2C)c1 [drawing 101] | – | – | – | % Cell Viability Average (Vero TMPRSS2 cells; 125 uM): 50.78%; % Cell Viability Replicate 1 (Vero TMPRSS2 cells; 125 uM): 49.91%; % Cell Viability Replicate 2 (Vero TMPRSS2 cells; 125 uM): 51.65%
CCCCCCC#Cc1cncc(-c2nnc(SCc3ccc(Cl)cc3)n2C)c1 [drawing 102] | 42.78% | 47.04% | 38.53% | –

Compound | % Cell Viability Average (Vero TMPRSS2 cells; 100 uM) | % Cell Viability Replicate 1 (Vero TMPRSS2 cells; 100 uM) | % Cell Viability Replicate 2 (Vero TMPRSS2 cells; 100 uM) | other results
CCCCCCC#Cc1cncc(-c2nnc(SCc3ccc(Br)cc3)n2C)c1 [drawing 103] | 42.17% | 42.94% | 41.40% | –
CCCCCCC#Cc1cncc(-c2nnc(SCc3cc([N+](=O)[O-])cc([N+](=O)[O-])c3)n2C)c1 [drawing 104] | – | – | – | % Cell Viability Average (Vero TMPRSS2 cells; 125 uM): 41.70%; % Cell Viability Replicate 1 (Vero TMPRSS2 cells; 125 uM): 42.56%; % Cell Viability Replicate 2 (Vero TMPRSS2 cells; 125 uM): 40.84%
CCCCCCC#Cc1cncc(-c2nnc(SCc3ccc([N+](=O)[O-])cc3)n2C)c1 [drawing 106] | 34.59% | 39.61% | 29.56% | –
CCCCCCC#Cc1cncc(-c2nnc(SCc3ccc(Cl)cc3)n2C2CC2)c1 [drawing 107] | 33.69% | 32.40% | 34.99% | –
CCCCCCC#Cc1cncc(-c2nnc(SCc3ccc(C)cc3)n2C)c1 [drawing 109] | 20.46% | 20.58% | 20.35% | –
CCCCCCC#Cc1cncc(-c2nnc(SCc3ccc(F)cc3)n2C)c1 [drawing 110] | 19.61% | 32.71% | 6.50% | –
CCCCCCC#Cc1cncc(-c2nnc(SCc3ccc(Cl)c(Cl)c3)n2C)c1 [drawing 111] | 18.98% | 19.98% | 17.98% | –
C#Cc1cncc(-c2nnc(SCc3ccc(Cl)cc3)n2C)c1 [drawing 113] | 3.10% | 3.02% | 3.18% | –
CCCCCCC#Cc1cncc(-c2nnc(SCc3ccc(Cl)cc3)n2C)c1 [drawing 114] | 2.36% | 2.25% | 2.47% | –
CCCCCCC#Cc1cccc(-c2nnc(SCc3ccc(Cl)cc3)n2C)c1 [drawing 115] | 1.77% | 1.97% | 1.58% | –
CCCCCCC#Cc1cncc(-c2nnc(SCc3ccc(Cl)cc3)n2C)c1 [drawing 116] | 1.67% | 1.57% | 1.76% | –
CCCCCCC#Cc1cncc(-c2nnc(SCc3ccc(Cl)cc3)n2C)c1 [drawing 117] | 1.56% | 1.41% | 1.70% | –
CCCCCCC#Cc1cncc(-c2nnc(SCc3cccc(Cl)c3)n2C)c1 [drawing 118] | – | – | – | % Cell Viability Average (Vero TMPRSS2 cells; 125 uM): 1.53%; % Cell Viability Replicate 1 (Vero TMPRSS2 cells; 125 uM): 2.13%; % Cell Viability Replicate 2 (Vero TMPRSS2 cells; 125 uM): 0.94%
CCCCCCC#Cc1cncc(-c2nnc(SCc3ccc(Cl)cc3)[nH]2)c1 [drawing 119] | – | – | – | % Cell Viability Average (Vero TMPRSS2 cells; 125 uM): 1.41%; % Cell Viability Replicate 1 (Vero TMPRSS2 cells; 125 uM): 1.43%; % Cell Viability Replicate 2 (Vero TMPRSS2 cells; 125 uM): 1.38%
CCCCCCC#Cc1cncc(-c2nnc(SCc3ccc([N+](=O)[O-])o3)n2C)c1 [drawing 120] | 1.31% | 1.30% | 1.31% | –
CCCCCCC#Cc1cncc(-c2nnc(SCCn3c([N+](=O)[O-])cnc3C)n2C)c1 [drawing 121] | 1.19% | 1.17% | 1.20% | –
CCCCCCC#Cc1cncc(-c2nnc(SCc3cc(F)cc(F)c3)n2C)c1 [drawing 123] | – | – | – | % Cell Viability Average (Vero TMPRSS2 cells; 125 uM): 0.96%; % Cell Viability Replicate 1 (Vero TMPRSS2 cells; 125 uM): 0.98%; % Cell Viability Replicate 2 (Vero TMPRSS2 cells; 125 uM): 0.94%
CCC(CC)COC(=O)[C@H](C)N[P@](=O)(OC[C@H]1O[C@@](C#N)(c2ccc3c(N)ncnn23)[C@H](O)[C@@H]1O)Oc1ccccc1 [remdesivir, reference compound] | – | – | – | % Cell Viability Average (Vero TMPRSS2 cells; 50 uM): 94.25% and 93.47% and 89.22%; % Cell Viability Replicate 1 (Vero TMPRSS2 cells; 50 uM): 94.32% and 91.48% and 89.25%; % Cell Viability Replicate 2 (Vero TMPRSS2 cells; 50 uM): 94.19% and 95.46% and 89.19%
Capuramycin B [reference compound] | – | – | – | % Cell Viability Average (Vero TMPRSS2 cells; 50 uM): 92.07% and 91.55% and 94.73%; % Cell Viability Replicate 1 (Vero TMPRSS2 cells; 50 uM): 90.49% and 90.38% and 96.50%; % Cell Viability Replicate 2 (Vero TMPRSS2 cells; 50 uM): 93.64% and 92.73% and 92.96%
